Source: US20250387359A1, “COMPOUNDS AND METHODS FOR THE TREATMENT OF PARASITIC INFECTIONS” (THE BOARD OF TRUSTEES OF THE UNIVERSITY OF ILLINOIS, priority 2019, published 2025)
Entries after “also recorded” stand apart in the source; their conditions may differ. Where two headings read alike, the source gives them in different places.

What was measured:
[1] = Compound cytotoxicity assay (WST-1) in HCT-8 cells; assay type: cell-based, human; conditions: human; HCT-8 cells, 24 h, WST-1
[2] = test system: Cryptosporidium parvum; experiment: In vitro anti-Cryptosporidium effect in HCT-8 cells (immunofluorescence assay); assay type: cell-based; conditions: for IC50: Cryptosporidium parvum, HCT-8 cells
Method: In vitro testing of the anti-Cryptosporidium effect of CpLDH inhibitors. HCT-8 cells were cultured in supplemented RPMI-1640 medium in 96-well plates. When the cells were confluent, old medium was replaced with fresh medium. To one set of wells, varying concentrations of recombinant CpLDH inhibitors (reconstituted in DMSO and diluted in RPMI medium) were added, while another set was left without inhibitors. Paromomycin was used as a positive control drug reconstituted in distilled sterile water. Then, 4×10^4 freshly excysted sporozoites were added to each well and incubated at 37° C. with 5% CO2. After 2 h incubation, varying concentrations of CpLDH inhibitors were added to the set of infected cells that were not treated initially. Control infected cells without inhibitors, but with added DMSO volumes equivalent to those used in the wells with inhibitors, were included. The cells were maintained in culture for a total of either 48 h or 72 h and processed for immunofluorescence assay as previously described (Int. J. Parasitol. 2017; 47(13), 867-874). Briefly, medium was decanted, and the cells fixed with methanol-acetic acid (9:1) for 2 minutes at room temperature. The cells were rehydrated and permeabilized by two successive washes with buffer (0.1% Triton X-100, 0.35 M NaCl, 0.13 M Tris-base, pH 7.6) and blocked with 5% normal goat serum, followed by staining with antibody to C. parvum (SporoGlo; Waterborn, Inc.) overnight at 4° C. The stained cells were washed twice with PBS, followed by water, and then imaged with an inverted fluorescence microscope. Fluorescence quantification was done using ImageJ version 1.37v software (NIH). Assays were performed in triplicate and repeated at least thrice.

[3] = test system: C. parvum; experiment: Histopathology of distal small intestine of C. parvum infected mice; assay type: in vivo, Cryptosporidium parvum; conditions: lower small intestine, H&E, NSC158011 400 mg/kg, NSC10447 250, 500 or 1000 mg/kg, paromomycin 100 mg/kg
Method: In vivo testing of the anti-Cryptosporidium effect of CpLDH inhibitors. Gamma interferon knockout mice (B6.129S7-Ifng), 8 weeks of age, were purchased from Charles River, USA. The care and use of the mice was done following the guidelines of protocol number 17024 approved by the University of Illinois at Urbana-Champaign, USA. The animals were allowed to acclimatize for 1 week before experiments commenced. Stock solutions of recombinant CpLDH inhibitors reconstituted in DMSO were diluted in sterile distilled water to reduce the final amount of DMSO in the solution to less than 1% (v/v) before administering them to mice. Prior to testing the anti-Cryptosporidium effect of the inhibitors in mice, the tolerability of each inhibitor was tested by oral gavage using varying dosages (100-2000 mg/kg body weight) of each inhibitor in groups of mice (three mice for each dose) daily for 7 days. Mice were observed daily for signs of toxicity including changes from normal physical activity, respiration, body temperature, feeding, posture, fur condition or occurrence of death. […] The subsequent dosages of NSC10447 used in the mice infection assays were 250, 500 and 1000 mg/kg mouse body weight, while the NSC158011 dosages used were 100, 200 and 400 mg/kg mouse body weight. Mice were allocated to groups as follows: “Infected plus inhibitor treatment”; “Infected minus inhibitor treatment”; “Uninfected minus inhibitor treatment” and “Infected plus paromomycin treatment”. Each group contained at least three mice. Each mouse in the infection groups received 5,000 C. parvum oocysts (resuspended in 50 μl of PBS) by oral gavage. Mice were housed individually in cages lined with sterile gauze as bedding. […] An equivalent volume of PBS containing a cocktail of penicillin (100 units/ml), streptomycin (100 μg/ml), chloramphenicol (34 μg/ml) and amphotericin (0.25 μg/ml) was added to the fecal samples and stored at 4° C. until use for quantification of C. parvum genomic DNA load. […]

## O=C1c2ccccc2C(=O)c2c(O)c(O)cc(O)c21 [NSC10447]
[1]
  IC50 at 24 h: 290 µM
[2]; 48 h post-infection, concentrations at least 50% lower than cytotoxicity IC50
  effect on C. parvum proliferation in initial screen: significantly (P<0.05) inhibit C. parvum proliferation
[2]; 48 h, compound added at the time of infection, read-out: IC50, inhibition of C. parvum growth at 48 h p.i.
  IC50: 72.7 µM
[2]; 72 h, compound added at the time of infection, read-out: IC50, inhibition of C. parvum growth at 72 h p.i.
  IC50: 83.6 µM
[2]; compound added 2 h post-infection, read-out: IC50, inhibition of C. parvum growth at 48 h p.i. (2 h)
  IC50: 79.5 µM
[2]; compound added 2 h post-infection, read-out: IC50, inhibition of C. parvum growth at 72 h p.i. (2 h)
  IC50: 95.2 µM
[3]
  histopathology of intestinal epithelium and villi: prevented villous atrophy and maintained the integrity of the intestinal mucosa; also recorded: intact intestinal epithelium with prominent villi
